Data reported in patent US8415357B2 (Canbas Co., Ltd., priority 2007, dated 2013).

test system: Jurkat cells; assay: Adaptation to G2 cell cycle arrest (G1 increment) in X-ray pre-arrested Jurkat cells, flow cytometry; assay type: cell-based, human; conditions: Homo sapiens, Jurkat, 24 h, Table 1; concentration causing half-maximal increase of % cells in G1 phase (G1 increment); Jurkat pre-arrested by 10 Gy X-ray, 24 hours with compound
Procedure: Phenotype-based screening was used to measure the ability of compounds of the invention to cause adaptation to G2 cell cycle arrest in G2-arrested cells. Adaptation to G2 cell cycle arrest and re-entry into the cell cycle can result in death of the previously G2-arrested cell, or suppression (inhibition) of further proliferation of the previously G2-arrested cell. In a non-limiting embodiment, the ability to cause adaptation to G2 cell cycle arrest was measured by contacting cells in which G2 arrest had been induced by irradiation (e.g., gamma (γ) radiation or X-ray radiation), with compounds of the invention at various concentrations and, for each compound at each concentration, determining the percentage of cells that escaped G2 arrest and re-entered the cell cycle, by determining the percentage of cells in G1 phase. The IC50 value for each compound was calculated as the dosage (usually in μM) that caused half-maximal increase of the percentage of cells in G1 phase (the G1 increment) measured for that compound. Certain invention compounds were initially identified by phenotype-based screening of small molecule libraries for activity against G2-arrested cells as described above.
Jurkat cells (a human T cell lymphoma-derived cell line) were arrested at the G2 phase by X-ray irradiation at 10 Gy, and cultured for 24 hours in 10% fetal calf serum (FCS)/RPMI1640 at 37° C. with 5% CO2/air. (FCS was from Equitech-Bio, Kerrville, Tex., and RPMI1640 was from Sigma-Aldrich, St. Louis, Mo.) Test compounds were added to the medium at the indicated doses, and the cells were cultured under the conditions described above, for an additional 24 hours before harvesting.
Harvested cells were stained with Krishan's buffer (0.1% sodium citrate, 50 μg/ml propidium iodide, 20 μg/ml RNase A, 0.5% Nonidet P-40) and analyzed by flow cytometry (BD Biosciences, Franklin Lakes, N.J.) to identify the cell stage of each cell in the sample. Cells in G1 phase were identified by having […] (2N) DNA content.
The IC50 value for each compound was calculated as the dosage showing half maximal activity to induce the increase of the percentage of cells in G1 phase (the G1 increment). IC50 values were used to measure the activity of compounds and to determine structure-activity relationships.
Pre-arrested Jurkat cells were prepared as described in Example 1. Briefly, Jurkat cells were subjected to X-ray irradiation at a dose of 10 Gy, and cultured for 24 hours in 10% fetal calf serum (FCS)/RPMI1640 at 37° C. with 5% CO2/air, after which time cells were exposed to various concentrations of test compounds, and cultured under the conditions described above for an additional 24 hours before harvesting. Harvested cells were stained with Krishan's buffer (0.1% sodium citrate, 50 μg/ml propidium iodide, 20 μg/ml RNase A, 0.5% Nonidet P-40) and analyzed by flow cytometry (BD Biosciences, Franklin Lakes, N.J.) to identify the cell stage of each cell in the sample. Cells in G1 phase were identified by having […] (2N) DNA content.
The IC50 value for each compound was calculated as the dosage (concentration in μM) that caused half-maximal increase of the percentage of cells in G1 phase (the G1 increment) measured for that test compound. Table 1 below presents the structure, mass, 1H NMR values, and […] values for representative compounds.
The IC50 value for each compound was calculated as the dosage (concentration in μM) that caused half-maximal increase of the percentage of cells in G1 phase (the G1 increment) measured for that test compound. Table 2 below presents structures, IUPAC name, molecular formula, ID number (“SCID”), mass, 1H NMR values, and IC50 values for representative compounds. Table 3 presents structures, IUPAC name, molecular formula, ID number (“SCID”), mass, 1H NMR values, and IC50 values for further representative compounds.

Row | IC50 [µM] | Compound
1 | 5 | CC1=C(C)C(=O)N(Nc2nc3ccc(Cl)cc3s2)C1=O [Compound S00590]
2 | 5 | CC1=C(C)C(=O)N(Nc2ccc3cc(Cl)ccc3n2)C1=O [Compound S00622]
3 | 10 | CC1=C(C)C(=O)N(Nc2cc(C(F)(F)F)ccc2Br)C1=O [Compound S00623]
4 | 10 | CC1=C(C)C(=O)N(Nc2ccc(C(F)(F)F)cc2Br)C1=O [Compound S00624]
5 | 2 | CC1=C(C)C(=O)N(Nc2cccc(C(C)(C)C)c2)C1=O [Compound S00627]
6 | 60 | CC1=C(C)C(=O)N(Oc2ccc(C)cc2)C1=O [Compound S00628]
7 | 10 | CC1=C(C)C(=O)N(Nc2cc(C(C)(C)C)ccc2Br)C1=O [Compound S00649]
8 | 10 | CC1=C(C)C(=O)N(Nc2ccc3ccccc3c2)C1=O [Compound S00651]
9 | 60 | CC1=C(C)C(=O)N(N2CCc3cc(C)ccc32)C1=O [Compound S00662]
10 | 40 | CC1=C(C)C(=O)N(n2ccc3cc(C)ccc32)C1=O [Compound S00663]
11 | 2.5 | CC1=C(C)C(=O)N(Nc2ccc(C)c(C(F)(F)F)c2)C1=O [Compound S00697]
12 | 5 | CC1=C(C)C(=O)N(Nc2ccc3c(c2)C(C)(C)CCC3(C)C)C1=O [Compound S00698]
13 | 10 | CC1=C(C)C(=O)N(Nc2ccc(C(F)(F)F)cc2Cl)C1=O [Compound S00699]
14 | 0.63 | CC1=C(C)C(=O)N(Nc2ccc(Cl)c3ccccc23)C1=O [Compound S00738, 1-[(4-chloronaphthyl)amino]-3,4-dimethylazoline-2,5-dione]
15 | 1.25 | CC1=C(C)C(=O)N(Nc2nc3c(Cl)cccc3s2)C1=O [Compound S00756]

Second part, the molecule before the results:

Row | Compound | IC50 [µM]
16 | CC1=C(C)C(=O)N(Nc2cc(C(F)(F)F)cc(C)n2)C1=O [Compound S00069] | 5
17 | CC1=C(C)C(=O)N(Nc2ccc(C(F)(F)F)cn2)C1=O [Compound S00073] | 2.5
18 | CC1=C(C)C(=O)N(N(C)c2cc(C(F)(F)F)cc(C)n2)C1=O [Compound S00084] | 5
19 | CC1=C(C)C(=O)N(Cc2ccc(C(F)(F)F)cc2)C1=O [Compound S00088] | 10
20 | CC1=C(C)C(=O)N(Nc2nc(Cl)ccc2C(F)(F)F)C1=O [Compound S00108] | 20
21 | CC1=C(C)C(=O)N(Cc2ccc(C(F)(F)F)cn2)C1=O [Compound S00110] | 60
22 | CC1C(=O)N(Nc2ccc(C(F)(F)F)cn2)C(=O)C1Sc1ccccc1 (stereo not shown) [Compound S00145] | 30
23 | CC1=C(C)C(=O)N(N(C)c2ccc(C(F)(F)F)c(Cl)n2)C1=O [Compound S00170] | 0.12
24 | O=C1C2=C(CCCC2)C(=O)N1Nc1ccc(C(F)(F)F)c(Cl)n1 [Compound S00186, 2-{[6-chloro-5-(trifluoromethyl)-2-pyridyl]amino}-4,5,6,7-tetrahydroisoindole-1,3-dione] | 0.63
25 | O=C1C2=C(CCCC2)C(=O)N1Nc1ccc(C(F)(F)F)cn1 [Compound S00200] | 5
26 | CC1=C(C)C(=O)N(Cc2ccc(Cl)c(C(F)(F)F)c2)C1=O [Compound S00201] | 10
27 | CC1=C(c2ccccc2)C(=O)N(Nc2ccc(C(F)(F)F)c(Cl)n2)C1=O [Compound S00257] | 10
28 | CC1=C(C)C(=O)N(Nc2ccc(C)cc2C)C1=O [Compound S00294] | 5
29 | CC1=C(C)C(=O)N(Nc2nc3ccccc3s2)C1=O [Compound S00295] | 5
30 | CC1=C(C)C(=O)N(Nc2cccc(C(F)(F)F)c2)C1=O [Compound S00305] | 5
31 | CC1=C(C)C(=O)N(Nc2cc(Cl)ccc2C)C1=O [Compound S00319] | 10
32 | CC1=CC(=O)N(Nc2ccc(C(F)(F)F)c(Cl)n2)C1=O [Compound S00333] | 15
33 | CC1=C(C)C(=O)N(Nc2ccc3ccccc3n2)C1=O [Compound S00362] | 5
34 | CC1=C(C)C(=O)N(Nc2ccc(Cl)c(C(F)(F)F)c2)C1=O [Compound S00405] | 2.5
35 | O=C1C(Cl)=C(Cl)C(=O)N1Nc1cccc(C(F)(F)F)c1 [Compound S00406] | 80

Row | Compound | IC50 [µM]
36 | CC1=C(C)C(=O)N(Cc2ccc(C(F)(F)F)cc2Cl)C1=O [Compound S00408] | 10
37 | O=C1C(Cl)=C(Cl)C(=O)N1Cc1ccc(C(F)(F)F)cc1 [Compound S00409] | 20
38 | COC1=C(C)C(=O)N(Cc2ccc(C(F)(F)F)cc2)C1=O [Compound S00410] | 10
39 | CC1=C(C)C(=O)N(Cc2ccc(C(F)(F)F)c(F)c2)C1=O [Compound S00412] | 10
40 | COc1nc(NN2C(=O)C(C)=C(C)C2=O)ccc1C(F)(F)F [Compound S00451] | 60
41 | CC1=C(C)C(=O)N(Nc2ccc(C)c(C)c2)C1=O [Compound S00452] | 10
42 | CC1=C(C)C(=O)N(Nc2nc3ccc(F)cc3s2)C1=O [Compound S00454] | 4
43 | CC1=C(C)C(=O)N(Nc2cc(Cl)cc(Cl)c2)C1=O [Compound S00456] | 2.5
44 | CC1=C(C)C(=O)N(Nc2cc(C(F)(F)F)cc(C(F)(F)F)c2)C1=O [Compound S00474] | 2.5
45 | CC1=C(C)C(=O)N(Nc2cccc3ccccc23)C1=O [Compound S00475] | 3.75
46 | CC1=C(C)C(=O)N(Nc2ccc(C(C)(C)C)cc2)C1=O [Compound S00479] | 2.5
47 | CSCc1cc(C(F)(F)F)ccc1NN1C(=O)C(C)=C(C)C1=O [Compound S00499] | 5
48 | CC1=C(C)C(=O)N(Nc2cc(C(F)(F)F)ccc2C)C1=O [Compound S00512] | 5
49 | CC1=C(C)C(=O)N(Cc2ccc(C(F)(F)F)c(Cl)c2)C1=O [Compound S00513] | 5
50 | CC1=C(C)C(=O)N(Nc2ccc(-c3ccccc3)cc2)C1=O [Compound S00515] | 20
51 | CC1=C(C)C(=O)N(Nc2ccc(Br)c(C(F)(F)F)c2)C1=O [Compound S00516, 1-{[4-bromo-3-(trifluoromethyl)phenyl]amino}-3,4-dimethylazoline-2,5-dione] | 1.25
52 | CC1=C(C)C(=O)N(C(C)c2ccc(Br)cc2)C1=O (stereo not shown) [Compound S00543] | 60
53 | CC1=C(C)C(=O)N(Nc2ccc3cccc(Cl)c3n2)C1=O [Compound S00585, 1-[(8-chloro(2-quinolyl))amino]-3,4-dimethylazoline-2,5-dione] | 0.45
54 | CC1=C(C)C(=O)N(N(C)c2cc(Cl)cc(Cl)c2)C1=O [Compound S00587] | 2.5

same assay, conditions: Homo sapiens, Jurkat, 24 h, Table 2; concentration causing half-maximal increase of % cells in G1 phase (G1 increment); Jurkat pre-arrested by 10 Gy X-ray, 24 hours with compound

Row | IC50 [µM] | Compound
55 | 0.625 | CC1=C(C)C(=O)N(Nc2ccc(Cl)c3ccccc23)C1=O [Compound S00738, 1-[(4-chloronaphthyl)amino]-3,4-dimethylazoline-2,5-dione]
56 | 0.3 | CC1=C(C)C(=O)N(Nc2cc(Cl)c(Cl)c(Cl)c2)C1=O [Compound S00832, 3,4-dimethyl-1-[(3,4,5-trichlorophenyl)amino]azoline-2,5-dione]
57 | 0.625 | CC1=C(C)C(=O)N(Nc2cc(Cl)c3cccc(C)c3n2)C1=O [Compound S00871, 1-[(4-chloro-8-methyl(2-quinolyl))amino]-3,4-dimethylazoline-2,5-dione]
58 | 0.3 | CC1=C(C)C(=O)N(Nc2cc(C(F)(F)F)c3ccccc3n2)C1=O [Compound S00873, 3,4-dimethyl-1-{[4-(trifluoromethyl)(2-quinolyl)]amino}azoline-2,5-dione]
59 | 0.625 | CC1=C(C)C(=O)N(Nc2cc(Cl)c3cc(C)ccc3n2)C1=O [Compound S00935, 1-[(4-chloro-6-methyl(2-quinolyl))amino]-3,4-dimethylazoline-2,5-dione]
60 | 0.625 | CC1=C(C)C(=O)N(Nc2ccc(Br)c3ccccc23)C1=O [Compound S00942, 1-[(4-bromonaphthyl)amino]-3,4-dimethylazoline-2,5-dione]

The remaining lines, values behind:

Row | Compound | IC50 [µM]
61 | CC1=C(C)C(=O)N(N(C)c2ccc(C(F)(F)F)c(Cl)n2)C1=O [Compound S00170] | 0.12
62 | O=C1C2=C(CCCC2)C(=O)N1Nc1ccc(C(F)(F)F)c(Cl)n1 [Compound S00186, 2-{[6-chloro-5-(trifluoromethyl)-2-pyridyl]amino}-4,5,6,7-tetrahydroisoindole-1,3-dione] | 0.625
63 | CC1=C(C)C(=O)N(Nc2ccc(Br)c(C(F)(F)F)c2)C1=O [Compound S00516, 1-{[4-bromo-3-(trifluoromethyl)phenyl]amino}-3,4-dimethylazoline-2,5-dione] | 0.625
64 | CC1=C(C)C(=O)N(Nc2ccc3cccc(Cl)c3n2)C1=O [Compound S00585, 1-[(8-chloro(2-quinolyl))amino]-3,4-dimethylazoline-2,5-dione] | 0.3
